Data from patent US20220305031A1, “METHODS FOR REDUCING TUMOR PROGRESSION AND FIBROSIS AND INCREASING ADAPTIVE IMMUNITY IN MALIGNANCIES” (GEORGETOWN UNIVERSITY, priority 2019, published 2022).

Legend:
Type in all cases: in vivo
NeuT/ATTAC mice [1] = assay: FACS analysis of immune cell subsets in tumor infiltrates and spleen
Procedure: (§1) Fibrosis was induced in mice at 6 w.o.a. by weekly i.p. injections of 0.4 mg/kg AP dissolved in vehicle (4% ethanol, 10% PEG-400, and 1.75% Tween-20 in water). Mice were maintained on LabDiet 5053 chow supplemented with 0.05% DMHCA (100 mg/kg) beginning at 8 w.o.a. Control mice received the standard diet.
To assess whether DMHCA treatment could reduce immune tolerance in NeuT/ATTAC mice, a model that is highly resistant to PD-1 immunotherapy, spleen and tumor immune infiltrates were analyzed by FACS (FIGS. 6A-6C).

[2] = tested on: tumors from NeuT/ATTAC mice; assay: Immunohistochemistry of FFPE tumor sections
Procedure: as §1
Mammary tissue was excised and FFPE sections were prepared (Yuan et al., “MMTV-NeuT/ATTAC Mice: A New Model for Studying the Stromal Tumor Microenvironment,” Oncotarget. 9(8):8042-53 (2018); Yuan et al., “PPARdelta Induces Estrogen Receptor-Positive Mammary Neoplasia Through an Inflammatory and Metabolic Phenotype linked to mTOR Activation,” Cancer Res. 73(14):4349-4361 (2013); Yin et al., “Peroxisome Proliferator-Activated Receptor Delta and Gamma Agonists Differentially Alter Tumor Differentiation and Progression During Mammary Carcinogenesis,” Cancer Res. 65:3950-3957 (2005); Yin et al., “Inhibition of Peroxisome Proliferator-Activated Receptor Gamma Increases Estrogen Receptor-Dependent Tumor Specification,” Cancer Res. 69(2):687-694 (2009), each of which is hereby incorporated by reference in its entirety). Primary antibodies: PD-L1 (1:200, 17952-1-AP, Proteintech), SMA (1:100, sc130617, Santa Cruz), Ki67 (1:50, CRM325, Biocare), CD31 (1:100, ab56299, Abcam), CXCL1 (1:120, sc-1374, Santa Cruz), F4/80 (1:30, 14-4801-85, eBioscience), Foxp3 (1:50, 14-5773-82, e Bioscience), CD8a (1:40, 14-0808-82, eBioscience). Collagen was stained with Picrosirius Red stain (Yuan et al., “MMTV-NeuT/ATTAC Mice: A New Model for Studying the Stromal Tumor Microenvironment,” Oncotarget. 9(8):8042-53 (2018), which is hereby incorporated by reference in its entirety).

[3] = tested on: tumors from NeuT/ATTAC mice; assay: FLIM and SHG microscopy of tumor sections; details: DMHCA-treated tumor vs control tumor
Text: SHG imaging using a multiphoton microscope equipped with a Deep Imaging Via Emission Recovery (DIVER) detector (Crosignani et al., “Deep Tissue Fluorescence Imaging and in Vivo Biological Applications,” J. Biomed. Opt. 17(11):116023 (2012), which is hereby incorporated by reference in its entirety) can distinguish collagen accumulation in the early stages of fibrosis unlike standard histological analysis (Dvornikov & Gratton, “Imaging in Turbid Media: A Transmission Detector Gives 2-3 Order of Magnitude Enhanced Sensitivity Compared to Epi-Detection Schemes,” Biomed. Opt. Express 7:3747-755 (2016); Ranjit et al., “Label-Free Fluorescence Lifetime and Second Harmonic Generation Imaging Microscopy Improves Quantification of Experimental Renal Fibrosis,” Kidney Int. 90:1123-1128 (2016), each of which is hereby incorporated by reference in its entirety). DIVER, by virtue of detection in the direction of light propagation is especially suitable for SHG detection and a combination of SHG and FLIM enables spatial mapping of collagen I and III, which is important for fibrosis. Additionally, this type of imaging is applicable to unstained tissues, which eliminates the uncertainty from issues associated with labeling efficiency. Moreover, the same tissue can be used for other purposes after imaging is complete. […]

NeuT/ATTAC mice [4] = assay: Tumor development and multiplicity in AP-treated NeuT/ATTAC mice on DMHCA diet; details: diet with 0.05% DMHCA (~100 mg/kg/day)
Text: The derivation and characteristics of MMTV-PPARd mice was reported in Yuan et al., “PPARdelta Induces Estrogen Receptor-Positive Mammary Neoplasia Through an Inflammatory and Metabolic Phenotype Linked to mTOR Activation,” Cancer Res. 73(14):4349-4361 (2013), which is hereby incorporated by reference in its entirety. […] FAT-ATTAC mice on a C57BL/6 background (Pajvani et al., “Fat Apoptosis Through Targeted Activation of Caspase 8: A New Mouse Model of Inducible and Reversible Lipoatrophy,” Nat. Med. 11(7):797-803 (2005); Landskroner-Eiger et al., “Morphogenesis of the Developing Mammary Gland. Stage-Dependent Impact of Adipocytes,” Dev. Biol. 344(2):968-978 (2010), each of which is hereby incorporated by reference in its entirety) were crossed into the FVB strain for several generations. Derivation of NeuT/ATTAC mice was reported in Yuan et al., “MMTV-NeuT/ATTAC Mice: A New Model for Studying the Stromal Tumor Microenvironment,” Oncotarget. 9(8):8042-8053 (2018), which is hereby incorporated by reference in its entirety. All animals were fed LabDiet 5303 and monitored for the NeuT, PPARd, and/or FKBPv-caspase 8 transgenes by genotyping.
as §1
Statistical significance was evaluated using the Mantel-Cox log-rank test for survival analysis and Prism GraphPad software or the two-tailed Student's t test to evaluate differences between means at a significance of P<0.05.
A study was designed to evaluate whether DMHCA treatment could abrogate tumor development in NeuT/ATTAC mice treated with AP.

[5] = NeuT/ATTAC mice, DMHCA from two months of age

C[C@H](CCC(=O)N(C)C)[C@H]1CC[C@H]2[C@@H]3CC=C4C[C@@H](O)CC[C@]4(C)[C@H]3CC[C@]12C [DMHCA, dimethyl-3-beta-hydroxy-cholenamide]
PD1+/Foxp3+ CD4+ T cells (NeuT/ATTAC mice [1]; [5]): increase
CD4+ effector T cells (NeuT/ATTAC mice [1]; spleen, vs control): enhanced
CD8+ effector T cells (NeuT/ATTAC mice [1]; spleen, vs control): enhanced
G-MDSC (NeuT/ATTAC mice [1]; spleen, vs control): reduced
Treg cells (NeuT/ATTAC mice [1]; spleen, vs control): markedly reduced
CD4+ effector T cells (NeuT/ATTAC mice [1]; tumor infiltrates, vs control): increased
CD8+ effector T cells (NeuT/ATTAC mice [1]; tumor infiltrates, vs control): increased
G-MDSC (NeuT/ATTAC mice [1]; tumor infiltrates, vs control): reduced
M-MDSC (NeuT/ATTAC mice [1]; tumor infiltrates, vs control): reduced
Treg (NeuT/ATTAC mice [1]; tumor infiltrates, vs control): reduced
CXCL1 expression ([2]; IHC of tumors, FIG. 7): reduced CXCL1 expression
fibroblast activation protein expression [2, 5]: reduced
smooth muscle actin expression [2, 5]: reduced
collagen I & collagen III detected by FLIM ([3]; FIG. 8C-8D): little collagen
collagen I by SHG microscopy ([3]; FIG. 8E-8G): markedly reduced
tumor development (NeuT/ATTAC mice [4]; NeuT/ATTAC mice treated with AP, FIG. 5A): reduction in tumor development
decrease in tumor multiplicity (NeuT/ATTAC mice [4]; NeuT/ATTAC mice treated with AP, FIG. 5B): 10 fold
toxicity of dietary dose (NeuT/ATTAC mice [4]): nontoxic
